Test results from patent US20230265151A1, “GIP/GLP1 CO-AGONIST COMPOUNDS” (priority 2020, published 2023).
Like-named read-outs stand apart in the source and are kept apart here. *1 amine or outer side, *2 acyl side, *3 side chain or, on linkers, in order; H or OH if unused. Where a SMILES comes first, the peptide text is derived from it. Side-chain parts run from the residue outwards. [ ]: non-standard residue; d: D form. The star is where a group is joined. αMePhe(2-F) = C[C@](N)(Cc1ccccc1F)C(=O)O; γGlu = O=C(O)[C@H](CCC(=O)[*:2])N[*:1]; C14 diacid = O=C(O)CCCCCCCCCCCCC(=O)*; αMeY = C[C@](N)(Cc1ccc(O)cc1)C(=O)O; αMeL = CC(C)C[C@](C)(N)C(=O)O; Orn = NCCC[C@H](N)C(=O)O; AEEA = NCCOCCOCC(=O)O; Aib = CC(C)(N)C(=O)O

Legend:
Format in all cases: cell-based
[1] = biological target: hGLP-1R (Homo sapiens, UniProt P43220); assay: Functional cAMP formation (HTRF) in HEK-293 clonal cells expressing hGLP-1R, 0.1% bovine casein, without or with 1.0% human serum albumin; parameters: expressed in transfected cells
Chain of hGLP-1R (P43220 24-463): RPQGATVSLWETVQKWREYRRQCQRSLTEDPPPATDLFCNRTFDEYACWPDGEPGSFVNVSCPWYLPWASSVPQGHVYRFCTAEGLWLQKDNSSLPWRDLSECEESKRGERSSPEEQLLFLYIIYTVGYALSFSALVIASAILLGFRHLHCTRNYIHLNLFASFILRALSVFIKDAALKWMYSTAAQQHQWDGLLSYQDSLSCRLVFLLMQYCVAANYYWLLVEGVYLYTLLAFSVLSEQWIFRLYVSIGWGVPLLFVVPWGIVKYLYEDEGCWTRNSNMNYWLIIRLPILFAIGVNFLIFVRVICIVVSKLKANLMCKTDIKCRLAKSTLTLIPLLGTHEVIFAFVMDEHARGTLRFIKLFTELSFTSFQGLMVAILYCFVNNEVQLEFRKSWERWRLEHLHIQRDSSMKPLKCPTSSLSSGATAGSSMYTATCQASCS
In short: (§1)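 Cells were stimulated with peptide for 30 min at 37° C, then intracellular cAMP was measured by competitive HTRF (665/620 nm ratio) and converted to nM using a cAMP standard curve. Relative EC50 and Emax came from four-parameter logistic fits of percent maximal response against peptide concentration.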

[2] = biological target: T1, hGIPR (Homo sapiens, UniProt P48546); assay: Functional cAMP formation (HTRF) in HEK-293 clonal cells expressing hGIPR, 0.1% bovine casein, without or with 1.0% human serum albumin; conditions: for EC50: cAMP
T1 construct: expressed in transfected cells
T1 sequence (P48546 22-466): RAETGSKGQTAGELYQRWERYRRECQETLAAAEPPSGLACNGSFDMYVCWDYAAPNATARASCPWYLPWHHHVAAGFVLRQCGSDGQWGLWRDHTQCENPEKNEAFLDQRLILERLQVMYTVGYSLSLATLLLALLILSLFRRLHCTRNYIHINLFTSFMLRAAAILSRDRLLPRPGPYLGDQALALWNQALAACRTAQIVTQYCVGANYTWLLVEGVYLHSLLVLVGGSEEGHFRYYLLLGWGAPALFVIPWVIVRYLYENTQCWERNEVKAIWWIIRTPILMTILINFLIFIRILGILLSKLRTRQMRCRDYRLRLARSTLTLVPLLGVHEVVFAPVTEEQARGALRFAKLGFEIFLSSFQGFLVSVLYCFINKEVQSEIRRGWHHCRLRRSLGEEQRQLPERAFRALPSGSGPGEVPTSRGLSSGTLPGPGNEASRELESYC
In short: as §1

[3] = biological target: T2, hGCGR (Homo sapiens, UniProt P47871); assay: Functional cAMP formation (HTRF) in HEK-293 clonal cells expressing hGCGR, 0.1% bovine casein, without or with 1.0% human serum albumin
T2 construct: expressed in transfected cells
T2 sequence (P47871 26-477): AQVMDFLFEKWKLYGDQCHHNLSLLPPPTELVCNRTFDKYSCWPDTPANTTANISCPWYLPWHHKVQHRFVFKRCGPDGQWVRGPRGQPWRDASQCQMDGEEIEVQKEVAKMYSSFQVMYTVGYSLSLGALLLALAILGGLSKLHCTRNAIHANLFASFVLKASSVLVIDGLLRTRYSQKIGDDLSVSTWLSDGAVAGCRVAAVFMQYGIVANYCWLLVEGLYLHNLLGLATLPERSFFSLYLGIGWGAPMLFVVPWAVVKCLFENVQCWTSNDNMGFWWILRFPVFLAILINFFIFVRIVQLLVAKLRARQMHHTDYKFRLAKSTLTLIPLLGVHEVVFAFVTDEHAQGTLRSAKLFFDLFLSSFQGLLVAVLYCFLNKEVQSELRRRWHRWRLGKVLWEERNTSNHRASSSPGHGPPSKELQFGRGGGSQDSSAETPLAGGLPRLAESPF
In short: as §1

[4] = 0.1% bovine casein and 1.0% human serum albumin, 37° C., geometric mean, read-out: hGCGR EC50, nM (SEM, n)

In the case of CC[C@H](C)[C@H](NC(=O)[C@H](CC(C)C)NC(=O)[C@](C)(Cc1ccc(O)cc1)NC(=O)[C@@H](CCC(=O)O)NC(=O)[C@@H](NC(=O)[C@H](Cc1ccccc1)NC(=O)[C@H](CCC(=O)O)NC(=O)C(C)(C)NC(=O)[C@H](CCC(N)=O)NC(=O)[C@H](C)NC(=O)[C@H](CCCCNC(=O)COCCOCCNC(=O)COCCOCCNC(=O)CC[C@H](NC(=O)CCCCCCCCCCCCC(=O)O)C(=O)O)NC(=O)[C@H](CCCN)NC(=O)[C@H](CC(=O)O)NC(=O)[C@H](CC(C)C)NC(=O)[C@](C)(CC(C)C)NC(=O)[C@@H](NC(=O)[C@H](CO)NC(=O)[C@@H](NC(=O)[C@H](CC(=O)O)NC(=O)[C@H](CO)NC(=O)[C@@H](NC(=O)[C@](C)(Cc1ccccc1F)NC(=O)[C@@H](NC(=O)CNC(=O)[C@H](CCC(=O)O)NC(=O)C(C)(C)NC(=O)[C@@H](N)Cc1ccc(O)cc1)[C@@H](C)O)[C@@H](C)O)C(C)C)[C@@H](C)CC)[C@@H](C)CC)C(=O)N[C@@H](CCC(=O)O)C(=O)NCC(=O)NCC(=O)N[C@@H](CCCCNC(=O)COCCOCCNC(=O)COCCOCCNC(=O)CC[C@H](NC(=O)CCCCCCCCCCCCC(=O)O)C(=O)O)C(=O)N[C@@H](CO)C(=O)N[C@@H](CO)C(=O)NCC(=O)N[C@@H](C)C(=O)N1CCC[C@H]1C(=O)N1CCC[C@H]1C(=O)N1CCC[C@H]1C(=O)N[C@@H](CO)C(N)=O [Example 90] (H-Y[Aib]EGT[αMePhe(2-F)]TSDVSI[αMeL]LD[Orn]K([AEEA-AEEA-γGlu-C14 diacid])AQ[Aib]EFI[dE][αMeY]LIEGGK([AEEA-AEEA-γGlu-C14 diacid])SSGAPPPS-NH2), the EC50 ([1]; 0.1% bovine casein and 1.0% human serum albumin, 37° C., geometric mean, read-out: hGLP-1R EC50, nM (SEM, n)) is reported as 23.4 nM, the Emax ([1]; HEK293, 0.1% bovine casein and 1.0% human serum albumin, 37° C., percent of maximal response to GLP-1(7-36)NH2, read-out: hGLP-1R Emax, % ± SEM) is reported as 96.6% and the Emax ([1]; HEK293, percent of maximal response to GLP-1(7-36)NH2, 37° C., 0.1% bovine casein, arithmetic mean, read-out: hGLP-1R Emax, % ± SEM) is reported as 96.2 ± 1.5%. For the same molecule, the EC50 ([1]; cAMP, incubated at 37° C., 0.1% bovine casein (no human serum albumin), geometric mean, read-out: hGLP-1R EC50, nM (SEM, n)) was 0.221 nM, the Emax ([2]; HEK293, percent of maximal response to GIP(1-42)NH2, 37° C., 0.1% bovine casein, arithmetic mean, read-out: hGIPR Emax, % ± SEM) was 93 ± 3.31% and the EC50 [3, 4] was greater than 9950 nM. For the same molecule, the EC50 ([3]; cAMP, incubated at 37° C., 0.1% bovine casein (no human serum albumin), geometric mean, read-out: hGCGR EC50, nM (SEM, n)) was greater than 9950 nM.
CC[C@H](C)[C@H](NC(=O)[C@H](CC(C)C)NC(=O)[C@](C)(Cc1ccc(O)cc1)NC(=O)[C@H](CCCCNC(=O)COCCOCCNC(=O)COCCOCCNC(=O)CC[C@H](NC(=O)CCCCCCCCCCCCC(=O)O)C(=O)O)NC(=O)[C@@H](NC(=O)[C@H](Cc1ccccc1)NC(=O)[C@H](CCC(=O)O)NC(=O)C(C)(C)NC(=O)[C@H](CCC(N)=O)NC(=O)[C@H](C)NC(=O)[C@H](CCCCNC(=O)COCCOCCNC(=O)COCCOCCNC(=O)CC[C@H](NC(=O)CCCCCCCCCCCCC(=O)O)C(=O)O)NC(=O)[C@H](CCCN)NC(=O)[C@H](CC(=O)O)NC(=O)[C@H](CC(C)C)NC(=O)[C@](C)(CC(C)C)NC(=O)[C@@H](NC(=O)[C@H](CO)NC(=O)C1(NC(=O)[C@H](CC(=O)O)NC(=O)[C@H](CO)NC(=O)[C@@H](NC(=O)[C@](C)(Cc2ccccc2F)NC(=O)[C@@H](NC(=O)CNC(=O)[C@H](CCC(=O)O)NC(=O)C(C)(C)NC(=O)[C@@H](N)Cc2ccc(O)cc2)[C@@H](C)O)[C@@H](C)O)CCCC1)[C@@H](C)CC)[C@@H](C)CC)C(=O)N[C@@H](CCC(=O)O)C(=O)NCC(=O)NCC(=O)N1CCC[C@H]1C(=O)N[C@@H](CO)C(=O)N[C@@H](CO)C(=O)NCC(=O)N[C@@H](C)C(=O)N1CCC[C@H]1C(=O)N1CCC[C@H]1C(=O)N1CCC[C@H]1C(=O)N[C@@H](CO)C(N)=O [Example 116] showed an EC50 ([1]; hGLP-1R EC50, nM (SEM, n), cAMP, incubated at 37° C., 0.1% bovine casein (no human serum albumin), geometric mean) of 0.197 nM, an Emax ([2]; HEK293, read-out: hGIPR Emax, % ± SEM, percent of maximal response to GIP(1-42)NH2, 37° C., 0.1% bovine casein, arithmetic mean) of 115% and an EC50 ([3]; hGCGR EC50, nM (SEM, n), cAMP, incubated at 37° C., 0.1% bovine casein (no human serum albumin), geometric mean) greater than 9950 nM.
Work on CC[C@H](C)[C@H](NC(=O)[C@H](CCCN)NC(=O)[C@H](CC(=O)O)NC(=O)[C@H](CC(C)C)NC(=O)[C@](C)(CC(C)C)NC(=O)[C@@H](NC(=O)C(C)(C)NC(=O)[C@H](Cc1ccc(O)cc1)NC(=O)[C@H](CC(=O)O)NC(=O)[C@H](CO)NC(=O)[C@@H](NC(=O)[C@](C)(Cc1ccccc1F)NC(=O)[C@@H](NC(=O)CNC(=O)[C@H](CCC(=O)O)NC(=O)C(C)(C)NC(=O)[C@@H](N)Cc1ccc(O)cc1)[C@@H](C)O)[C@@H](C)O)[C@@H](C)CC)C(=O)N[C@@H](C)C(=O)N[C@@H](CCC(N)=O)C(=O)NC(C)(C)C(=O)N[C@@H](CCCN)C(=O)N[C@@H](Cc1ccccc1)C(=O)N[C@H](C(=O)N[C@@H](CCCCNC(=O)COCCOCCNC(=O)COCCOCCNC(=O)CC[C@H](NC(=O)CCCCCCCCCOc1ccc(C(=O)O)cc1)C(=O)O)C(=O)N[C@@](C)(Cc1ccc(O)cc1)C(=O)N[C@@H](CC(C)C)C(=O)N[C@H](C(=O)N[C@@H](CCCCNC(=O)COCCOCCNC(=O)COCCOCCNC(=O)CC[C@H](NC(=O)CCCCCCCCCOc1ccc(C(=O)O)cc1)C(=O)O)C(=O)NCC(=O)NCC(=O)N1CCC[C@H]1C(=O)N[C@@H](CO)C(=O)N[C@@H](CO)C(=O)NCC(=O)N[C@@H](C)C(=O)N1CCC[C@H]1C(=O)N1CCC[C@H]1C(=O)N1CCC[C@H]1C(=O)N[C@@H](CO)C(N)=O)[C@@H](C)CC)[C@@H](C)CC [Example 355] yielded an Emax ([1]; HEK293, read-out: hGLP-1R Emax, % ± SEM, cAMP, 37° C., 0.1% bovine casein and 1.0% human serum albumin, percent of maximal response to GLP-1(7-36)NH2) of 109%, an Emax ([1]; HEK293, read-out: hGLP-1R Emax, % ± SEM, cAMP, 37° C., 0.1% bovine casein, percent of maximal response to GLP-1(7-36)NH2, arithmetic mean) of 105% and an EC50 ([1]; hGLP-1R EC50, nM (SEM, n), cAMP, 37° C., 0.1% bovine casein (no human serum albumin), geometric mean) of 0.574 nM. It also gave an EC50 ([1]; hGLP-1R EC50, nM (SEM, n), cAMP, 37° C., 0.1% bovine casein and 1.0% human serum albumin, geometric mean (SEM, n)) of 11.3 nM, an Emax ([2]; HEK293, read-out: hGIPR Emax, % ± SEM, cAMP, 37° C., 0.1% bovine casein and 1.0% human serum albumin, percent of maximal response to GIP(1-42)NH2) of 86% and an EC50 ([2]; hGIPR EC50, nM (SEM, n), 37° C., 0.1% bovine casein (no human serum albumin), geometric mean) of 0.0365 nM. The EC50 ([2]; hGIPR EC50, nM (SEM, n), 37° C., 0.1% bovine casein and 1.0% human serum albumin, geometric mean (SEM, n)) was 1.81 nM, the EC50 ([3]; hGCGR EC50, nM (SEM, n), cAMP, 37° C., 0.1% bovine casein (no human serum albumin), geometric mean) was greater than 9950 nM and the EC50 ([3]; hGCGR EC50, nM (SEM, n), cAMP, 37° C., 0.1% bovine casein and 1.0% human serum albumin, geometric mean (SEM, n)) was greater than 9950 nM.
CCCCCCCCCCCC(=O)N[C@@H](CCC(=O)NCCOCCOCC(=O)NCCOCCOCC(=O)NCCCC[C@H](NC(=O)[C@H](CCCN)NC(=O)[C@H](CC(=O)O)NC(=O)[C@H](CC(C)C)NC(=O)[C@](C)(CC(C)C)NC(=O)[C@@H](NC(=O)[C@H](CO)NC(=O)[C@H](Cc1ccncc1)NC(=O)[C@H](CC(=O)O)NC(=O)[C@H](CO)NC(=O)[C@@H](NC(=O)[C@](C)(Cc1ccccc1F)NC(=O)[C@@H](NC(=O)CNC(=O)[C@H](CCC(=O)O)NC(=O)C(C)(C)NC(=O)[C@@H](N)Cc1ccc(O)cc1)[C@@H](C)O)[C@@H](C)O)[C@@H](C)CC)C(=O)N[C@@H](C)C(=O)N[C@@H](CCC(N)=O)C(=O)NC(C)(C)C(=O)N[C@@H](CCCN)C(=O)N[C@@H](Cc1ccccc1)C(=O)N[C@H](C(=O)N[C@H](CCC(=O)O)C(=O)N[C@@](C)(Cc1ccc(O)cc1)C(=O)N[C@@H](CC(C)C)C(=O)N[C@H](C(=O)N[C@@H](CCCCNC(=O)COCCOCCNC(=O)COCCOCCNC(=O)CC[C@H](NC(=O)CCCCCCCCCCC)C(=O)O)C(=O)NCC(=O)NCC(=O)N1CCC[C@H]1C(=O)N[C@@H](CO)C(=O)N[C@@H](CO)C(=O)NCC(=O)N[C@@H](C)C(=O)N1CCC[C@H]1C(=O)N1CCC[C@H]1C(=O)N1CCC[C@H]1C(=O)N[C@@H](CO)C(N)=O)[C@@H](C)CC)[C@@H](C)CC)C(=O)O [Example 299] gave an EC50 ([1]; cAMP, 37° C., 0.1% bovine casein (no human serum albumin), geometric mean, read-out: hGLP-1R EC50, nM (SEM, n)) of 0.126 nM, an EC50 ([2]; 37° C., 0.1% bovine casein (no human serum albumin), geometric mean, read-out: hGIPR EC50, nM (SEM, n)) of 0.0104 nM and an EC50 [3, 4] greater than 9950 nM. It also gave an EC50 ([3]; cAMP, 37° C., 0.1% bovine casein (no human serum albumin), geometric mean, read-out: hGCGR EC50, nM (SEM, n)) greater than 9950 nM.
